Measured values taken from ChEMBL document CHEMBL2380234, “Natural sesquiterpene lactones as inhibitors of Myb-dependent gene expression: structure-activity relationships” (Eur J Med Chem, 2013).

Experiment: Cytotoxicity against chicken HD11 cells assessed as cell viability after 24 hrs by MTS assay
Assay type: ADME, cell-based
Details: Gallus gallus, HD11, 24 h

For C=C1C(=O)O[C@H]2C[C@H](C)[C@@H]3CC[C@@]4(C)O[C@@]34C[C@H]12, the IC50 was over 30 µM.

In the case of C=C1C[C@H](O)C[C@]2(C)C[C@H]3OC(=O)[C@@H](C)[C@H]3C[C@@H]12, the IC50 is reported as over 30 µM.

C=C1C(=O)O[C@@H]2/C=C(\C)CC[C@H]3O[C@]3(COC(C)=O)C[C@@H](OC(=O)C3(C)OC3C)[C@@H]12 (stereo partly drawn) showed an IC50 of 25.5 µM.

With C=C1C(=O)O[C@@H]2/C=C(/C)[C@@H](OC(C)=O)C[C@H]3O[C@]3(O)C[C@@H](OC(=O)/C(C)=C\C)[C@@H]12 the IC50 was over 30 µM.

Compound C=C1C(=O)O[C@@H]2/C=C(/CO)C[C@H](O)/C=C(/C(=O)OC)[C@@H](OC(C)=O)[C@@H](OC(=O)C(C)C)[C@@H]12 has an IC50 of 24.8 µM.

Compound C=C1C(=O)O[C@H]2[C@H]1[C@H](OC(=O)[C@]1(C)O[C@@H]1C)[C@@H](OC(C)=O)/C(C(=O)OC)=C\C=C/[C@@]1(C)O[C@H]21 has an IC50 of 28 µM.

Work on C=C1C(=O)O[C@@H]2/C=C(\C)CC/C=C(/C(=O)OC)[C@H](OC(C)=O)[C@@H](OC(=O)C(C)(O)C(C)O)[C@@H]12 (stereo partly drawn) yielded an IC50 of over 30 µM.

For C=C1C[C@H]2OC(=O)C(=C)[C@@H]2[C@H](OC(=O)C(C)C)C[C@@]2(C)OC1=CC2=O, the IC50 was 25.2 µM.

In the case of C=C(C)C(=O)O[C@@H]1C[C@@]2(C)OC(=CC2=O)C(=C)C[C@H]2OC(=O)C(=C)[C@H]12, the IC50 is reported as 10.4 µM.

C=C1C[C@H]2OC(=O)C(=C)[C@@H]2[C@H](OC(=O)/C(C)=C/C)C[C@@]2(C)OC1=CC2=O showed an IC50 of 12.1 µM.

For C=C1C(=O)O[C@@H]2C[C@H](C)C(/C=C/C(C)=O)=CC[C@H]12, the IC50 was over 30 µM.

Compound C=C1C(=O)O[C@@H]2C[C@H](C)[C@]3(/C=C/C(C)=O)O[C@@H]3C[C@H]12 has an IC50 of over 30 µM.

In the case of C=C1C(=O)O[C@@H]2C[C@H](C)[C@@]3(O)C=C(C(C)=O)[C@@]4(O[C@@H]3C[C@H]12)C(=O)O[C@H]1C[C@@H](C)C(/C=C/C(C)=O)=CC[C@H]14, the IC50 is reported as over 30 µM.

Compound C=C1C(=O)O[C@@H]2C[C@H](C)[C@@]3(O)C=C(C(C)=O)[C@@]4(O[C@@H]3C[C@H]12)C(=O)O[C@H]1C[C@@H](C)[C@]2(/C=C/C(C)=O)O[C@@H]2C[C@H]14 has an IC50 of over 30 µM.

Work on C=C1C(=O)O[C@@H]2[C@H]3O[C@]3(C)CC/C=C(\C)[C@@H](OC(=O)CC3(C)OC3C)C[C@@H]12 (stereo partly drawn) yielded an IC50 of 22.2 µM.

C=C1C(=O)O[C@H]2[C@H]1[C@H](OC(C)=O)C/C(C)=C/CC[C@@]1(C)O[C@@H]21 gave an IC50 of over 30 µM.

C=C1C(=O)O[C@@H]2/C=C(\C)CC[C@H]3O[C@]3(CO)C[C@@H](OC(=O)C3(C)OC3C)[C@@H]12 (stereo partly drawn) showed an IC50 of over 30 µM.

In the case of C=C1C(=O)O[C@@H]2C[C@@H](C)[C@@H]3[C@@H](OC(C)=O)C[C@@H](OC(C)=O)[C@@]3(C)[C@@H](OC(C)=O)[C@H]12, the IC50 is reported as over 30 µM.

Compound C=C1C(=O)O[C@@H]2C[C@@H](C)[C@@H]3[C@@H](OC(C)=O)C[C@@H](OC(C)=O)[C@@]3(C)C[C@H]12 has an IC50 of over 30 µM.

With C=C1C(=O)O[C@@H]2C[C@@H](C)[C@@H]3[C@@H](OC(C)=O)C[C@@H](O)[C@@]3(OC(C)=O)C[C@H]12 the IC50 was over 30 µM.

For C=C1C(=O)O[C@@H]2C[C@@H](C)[C@@H]3CCC(=O)[C@@]3(C)C[C@H]12, the IC50 was over 30 µM.

In the case of C=C1C(=O)O[C@@H]2C[C@@H](C)[C@@H]3[C@@H](OC(C)=O)C[C@@H](O)[C@@]3(C)C[C@H]12, the IC50 is reported as over 30 µM.

Compound CC(=O)O[C@H]1[C@@H]2[C@H](C)C(=O)O[C@@H]2C[C@@H](C)[C@@H]2C=CC(=O)[C@]21C has an IC50 of 21 µM.

C=C1C(=O)O[C@@H]2C3O[C@]3(C)CC/C=C(\C)CC[C@@H]12 (stereo partly drawn) showed an IC50 of over 30 µM.

CC(C)CC(=O)O[C@H]1[C@@H]2[C@H](C)C(=O)O[C@@H]2C[C@@H](C)[C@@H]2C=CC(=O)[C@]21C showed an IC50 of over 30 µM.

In the case of C=C1C(=O)O[C@@H]2C[C@@H](C)[C@@H]3[C@@H](O)C[C@@H](OC(=O)/C(C)=C/C)[C@@]3(C)[C@@H](O)[C@H]12, the IC50 is reported as over 30 µM.

C=C1C(=O)O[C@@H]2[C@H]3O[C@]3(C)CC/C=C(\C)[C@@H](OC(=O)C(C)C(C)O)C[C@@H]12 (stereo partly drawn) gave an IC50 of over 30 µM.

C=C1C(=O)O[C@@H]2[C@H]3O[C@]3(C)CC/C=C(\C)[C@@H](OC(=O)CC(C)(C)O)C[C@@H]12 showed an IC50 of over 30 µM.

Compound C=C1C(=O)O[C@@H]2C[C@@H](C)[C@@H]3[C@@H](O)C[C@@H](O)[C@@]3(C)C[C@H]12 has an IC50 of over 30 µM.

C=C1C(=O)O[C@@H]2C[C@@]3(C)CC(=O)C[C@H](C)C3=C[C@H]12 [2-OXOALANTOLACTONE] gave an IC50 of over 30 µM.

In the case of C/C1=C\CC[C@@]2(C)O[C@@H]2[C@H]2OC(=O)[C@@H](C)[C@@H]2CC1 [11BETA,13-DIHYDRO-PARTHENOLIDE], the IC50 is reported as over 30 µM.

C=C1C(=O)O[C@@H]2C[C@@H](C)[C@@H]3C=CC(=O)[C@@]3(C)[C@@H](OC(C)=O)[C@H]12 [ANGUSTIBALIN] gave an IC50 of 7.34 µM.

Work on C=C1C(=O)O[C@@H]2[C@H]3C(C)=CC[C@@]34O[C@@]4(C)CC[C@@H]12 [ARGLABIN] yielded an IC50 of over 30 µM.

Compound C=C1C(=O)O[C@@H]2C[C@@H](C)C(=O)C/C=C(\C)CC[C@@H]12 [ARGOLIDE] has an IC50 of over 30 µM.

Work on C=C1C(=O)O[C@@H]2C[C@@H](C)[C@@H]3[C@@H](O)CC(=O)[C@@]3(C)[C@@H](OC(=O)/C(C)=C/C)[C@H]12 [ARNIFOLIN] yielded an IC50 of over 30 µM.

With C=C1C(=O)O[C@@H]2/C=C(/CO)C3=CC(=O)[C@@](C)(C[C@@H](OC(=O)/C(C)=C/C)[C@@H]12)O3 [BUDLEIN A] the IC50 was 9 µM.

For C=C1C(=O)O[C@@H]2C[C@]3(C)[C@@H](CCC(C)=O)[C@]3(C)C[C@H]12 [CARABRONE], the IC50 was over 30 µM.

In the case of C=C1C(=O)O[C@@H]2C[C@@H](C)[C@@H]3[C@@H](OC(C)=O)C[C@@H](O)[C@@]3(C)[C@@H](O)[C@H]12 [CHAMISSONOLIDE], the IC50 is reported as over 30 µM.

With C=C1C(=O)O[C@@H]2/C=C(\CO)CC/C=C(\C)C[C@H](OC(=O)C(=C)[C@H](O)CO)[C@@H]12 [CNICIN] the IC50 was over 30 µM.

C=C1C(=O)O[C@@H]2/C=C(\C)CC/C=C(\C)CC[C@@H]12 [COSTUNOLIDE] showed an IC50 of over 30 µM.

In the case of C=C1CC[C@H]2C(=C)CC[C@H]3C(=C)C(=O)O[C@@H]3[C@@H]12 [DEHYDROCOSTUSLACTONE], the IC50 is reported as over 30 µM.

For C=C1C(=O)O[C@@H]2[C@H]3C(C)=CC[C@H](O)[C@]3(C)CC[C@@H]12 [DOUGLANIN], the IC50 was over 30 µM.

C=C1C(=O)O[C@H]2[C@H]1[C@H](OC(=O)[C@@]1(C)O[C@H]1C)[C@@H](OC(C)=O)/C(C(=O)OC)=C\CC[C@@]1(C)O[C@H]21 [ENHYDRIN] gave an IC50 of 7.49 µM.

C=C1C(=O)O[C@@H]2/C=C(/C)[C@@H](O)C[C@H]3O[C@]3(C)C[C@@H](OC(=O)/C(C)=C\C)[C@@H]12 [EPOXYNOBILIN] gave an IC50 of over 30 µM.

Work on C=C(C)C(=O)O[C@H]1C[C@@]2(C)OC(=CC2=O)/C(CO)=C\[C@H]2OC(=O)C(=C)[C@H]12 [GOIAZENSOLIDE] yielded an IC50 of 10.1 µM.

With C=C1C(=O)O[C@@H]2C[C@@H](C)[C@@H]3C=CC(=O)[C@@]3(C)[C@@H](OC(=O)C(C)C)[C@H]12 [HELENALINISOBUTYRATE] the IC50 was over 30 µM.

With C=C1C(=O)O[C@@H]2C[C@@H](C)[C@@H]3C=CC(=O)[C@@]3(C)[C@@H](O)[C@H]12 [HELENALIN] the IC50 was 21.1 µM.

For C=C1C(=O)O[C@@H]2C[C@@]3(C)CCC[C@H](C)C3=C[C@H]12 [HELENINE], the IC50 was over 30 µM.

C=C1C(=O)O[C@@H]2C[C@@]3(C)CCCC(=C)[C@@H]3C[C@H]12 [ISOALANTOLACTONE] gave an IC50 of over 30 µM.

For C=C1C(=O)O[C@@H]2C[C@@]3(C)C[C@@H](O)CC(=C)[C@@H]3C[C@H]12 [IVALIN], the IC50 was over 30 µM.

In the case of C=C1C(=O)O[C@H]2C[C@@H](C)[C@@H]3C=CC(=O)[C@@]3(C)[C@H](O)[C@H]12 [MEXICANIN I], the IC50 is reported as 21.1 µM.

With C=C1C(=O)O[C@@H]2/C=C(/C)[C@@H](O)C/C=C(\C)C[C@H](OC(=O)/C(C)=C\C)[C@@H]12 [NOBILIN] the IC50 was over 30 µM.

For C=C(CO)C(=O)O[C@H]1C/C(C)=C\CC/C(CO)=C\[C@H]2OC(=O)C(=C)[C@H]12 [ONOPORDOPICRIN], the IC50 was over 30 µM.

C=C1C(=O)O[C@@H]2C[C@H](C)[C@]3(O)CCC(=O)[C@@]3(C)C[C@H]12 [PERUVIN] gave an IC50 of over 30 µM.

In the case of C=C1C(=O)O[C@@H]2[C@H]1CC[C@H](C)[C@]1(CCC(=O)O1)[C@@]2(C)O [PSILOSTACHYIN A], the IC50 is reported as over 30 µM.

C=C1C(=O)O[C@@H]2/C=C(/C)[C@@H](O)C[C@H]3O[C@]3(COC(C)=O)C[C@@H](OC(=O)/C(C)=C\C)[C@@H]12 [ROTUNDIN] gave an IC50 of over 30 µM.

In the case of C=C1C(=O)O[C@@H]2/C=C(/C)C(=O)/C=C/[C@](C)(O)C[C@@H](OC(=O)C(C)C)[C@@H]12 [TAGITININ C], the IC50 is reported as 30.9 µM.

C=C1C(=O)O[C@@H]2/C=C(\C)CC/C=C(/C(=O)OC)[C@H](OC(C)=O)[C@@H](OC(=O)[C@]3(C)O[C@@H]3C)[C@@H]12 [UVEDALIN] showed an IC50 of 11.4 µM.
